Results reported in patent US20240349723A1 (priority 2023, published 2024).
“Also recorded” adds a separate entry of the source. Like-named read-outs stand apart in the source and are kept apart here. Where a SMILES comes first, the peptide text is derived from it. Where no end group is shown, it is not given here.

Legend:
[1] = test system: Liberibacter crescens strain BT-1
CLas = assay type: in vivo, Candidatus Liberibacter asiaticus
Diaphorina citri = assay type: in vivo; settings: for Nymph mortality of D. citri: dead psyllids counted daily, 21 days, FIG. 9; for live adult psyllids collected from the ten leaves: after 21 day assay, 10 nymphs per excised leaf, peptides 1 mg/mL, PMB 0.5 mg/mL
[2] = test system: 'Candidatus Liberibacter asiaticus' (CLas); assay type: in vivo; settings: excised CLas-infected citrus leaves, 1 mg/ml, seven-day incubation, FIG. 5
[3] = adults developed on treated CLas-infected leaves, 21 days, FIG. 7

Q: With `CC[C@H](C)[C@H](NC(=O)[C@H](CC(N)=O)NC(=O)[C@@H](NC(=O)CNC(=O)[C@H](CCCNC(=N)N)NC(=O)[C@H](Cc1ccccc1)NC(=O)[C@H](CCC(N)=O)NC(=O)[C@@H]1CCCN1C(=O)[C@H](CS)NC(=O)[C@H](CC(=O)O)NC(=O)[C@H](CCCCN)NC(=O)[C@H](CC(=O)O)NC(=O)[C@H](CCCNC(=N)N)NC(=O)[C@H](CCCCN)NC(=O)[C@H](CS)NC(=O)CNC(=O)[C@@H](N)CCCNC(=N)N)C(C)C)C(=O)N[C@@H](CCCNC(=N)N)C(=O)N[C@@H](CS)C(=O)N[C@@H](CCCNC(=N)N)C(=O)O` [compound 9] (H-RGCKRDKDCPQFRGVNIRCR-OH; N-terminus and C-terminus assumed) as the compound, how does the “Percent growth rate inhibition L. crescens” value ([1]; 0.1 mg/ml) read?
A: The value was 65.4%.

Q: Which “Percent growth rate inhibition L. crescens” value ([1]; L. crescens strain BT-1, BM7 medium, final peptide 1 or 0.1 mg/ml, O.D. 600 nm over seven days) does the source give for LRFRSVFHIFASVLAVAKKH [compound 6] here?
A: Its value is 66.6%.

Q: Which results are given for “LYCNVGSHMECVKHQCKCIK (listed as Medicago truncatula) [SEQ ID NO: 11]”?
A: number of infective Diaphorina citri adults that develop on treated leaves (CLas; leaf delivery, FIG. 7): reduces the number of infective Diaphorina citri adults; Nymph mortality of D. citri (Diaphorina citri): Nymph mortality observed

Q: Which results are given for “QNLCVGSPLPLQCLKFICRC (listed as Medicago truncatula) [SEQ ID NO: 14]”?
A: number of infective Diaphorina citri adults that develop on treated leaves (CLas; leaf delivery, FIG. 7): reduces the number of infective Diaphorina citri adults; Nymph mortality of D. citri (Diaphorina citri): Nymph mortality observed

Q: Which results are given for “RGCKRDKDCPQFRGVNIRCR (listed as Medicago truncatula) [SEQ ID NO: 9]”?
A: development of psyllid with more than 100 CLas cells per insect (high titer) (CLas; in vivo): completely blocking the development of psyllid with more than 100 CLas cells; also recorded: No highly infected adults develop; number of infective Diaphorina citri adults that develop on treated leaves (CLas; in vivo): reduces the number of infective Diaphorina citri adults; live adult psyllids collected from the ten leaves (Diaphorina citri): 80

Q: For “VKCVLPRIARCIKYRCQCRN (listed as Medicago truncatula) [SEQ ID NO: 10]”, which “development of psyllid with more than 100 CLas cells per insect (high titer)” value (CLas; [3]) is on record?
A: The value was “completely blocking the development of psyllid with more than 100 CLas cells; also recorded: No highly infected adults develop”.

Q: What about the “number of infective Diaphorina citri adults that develop on treated leaves” value (CLas; leaf delivery, FIG. 7) of the same compound?
A: Its value is “reduces the number of infective Diaphorina citri adults”.

Q: And the “live adult psyllids collected from the ten leaves” value (Diaphorina citri)?
A: The value was 74.

Q: “YSSCATKEECKCPDNKRPAC (listed as Medicago truncatula) [SEQ ID NO: 8]” was tested. Which “adult insects with more than 100 CLas cell equivalents per insect” value (CLas; count out of adults collected, 21 days, FIG. 7) did it give?
A: Its value is 2/84.

Q: And the “number of infective Diaphorina citri adults that develop on treated leaves” value (CLas; leaf delivery, FIG. 7)?
A: Its value is “reduces the number of infective Diaphorina citri adults”.

Q: What about the “live adult psyllids collected from the ten leaves” value (Diaphorina citri) of the same compound?
A: The value was 84.

Q: Which results are given for “polymyxin B sulfate [PMB, reference compound]”?
A: performance in the bacterial growth assays ([1]; positive growth inhibition control, 0.5 mg/ml): excellent performance as an antimicrobial peptide; CLas 16S transcript-to-gene ratio (CLas rRNA : CLas rDNA), CLas activity [2]: greater declines in detectable CLas activity; development of psyllid with more than 100 CLas cells per insect (high titer) (CLas; [3]): prevented the development of high titer psyllid; CLas titer in the excised leaves (CLas; excised leaf acquisition assay, FIG. 6A, differences not statistically significant): reduced CLas titer in the excised leaves; live adult psyllids collected from the ten leaves (Diaphorina citri): 87
